Reference: patent US6603044B1, “Phthalamide derivatives, or salt thereof agrohorticultural insecticide, and method for using the same” (Nihon Nohyaku Co., Ltd., priority 1998, dated 2003)

System: Diamond Back Moth (Plutella xylostella)
Assay: Insecticidal effect on diamond back moth (Test Example 1)
Assay type: in vivo
Details: 50 ppm; Chinese cabbage seedling with deposited eggs immersed about 30 seconds; 25° C.; six days after the immersion
From the text: Insecticidal Effect on Diamond Back Moth (Plutella xylostella)
Adult diamondback moths were released and allowed to oviposit on a Chinese cabbage seedling. Two days after the release, the seedling having the eggs deposited thereon was immersed for about 30 seconds in a liquid chemical prepared by diluting a preparation containing each compound listed in Table 1, 2 or 3 as an active ingredient to adjust the concentration to 50 ppm. After air-dryness, it was allowed to stand in a room thermostatted at 25° C. Six days after the immersion, the hatched insects were counted. The mortality was calculated according to the following equation and the insecticidal effect was judged according to the criterion shown below. The test was carried out with triplicate groups of 10 insects.

Row | Compound | Test Example 1 insecticidal effect (mortality)
1 | CC(C)(CS(C)(=O)=O)NC(=O)c1c(F)cccc1C(=O)Nc1ccc(OC(F)(F)F)cc1Cl [compound 387] | A (100)
2 | CCN(CC[S+](C)[O-])C(=O)c1c(F)cccc1C(=O)Nc1ccc(C(F)(C(F)(F)F)C(F)(F)F)cc1C (stereo not drawn) [2-11] | A (100)
3 | CCCCCCSCC(C)NC(=O)c1c(I)cccc1C(=O)Nc1ccc(C(F)(C(F)(F)F)C(F)(F)F)cc1C (stereo not drawn) [compound 78] | A (100)
4 | CSCC(C)NC(=O)c1ccccc1C(=O)Nc1ccc(C(F)(F)C(F)(F)F)cc1C (stereo not drawn) [compound 14] | A (100)
5 | Cc1cc(OC(F)(F)F)ccc1NC(=O)c1cccc([N+](=O)[O-])c1C(=O)NC(C)C[S+](C)[O-] (stereo not drawn) [compound 389] | A (100)
6 | CSCC(C)NC(=O)c1c(C(=O)Nc2ccc(C(F)(C(F)(F)F)C(F)(F)F)cc2C)cccc1[S+]([O-])C(F)(F)F (stereo not drawn) [compound 132] | A (100)
7 | CSCCNC(=O)c1cccc(I)c1C(=O)Nc1ccc(OC(F)(F)F)cc1C [compound 51] | A (100)
8 | CSCC(C)NC(=O)c1ccccc1C(=O)Nc1ccc(OC(F)(F)F)cc1C (stereo not drawn) [compound 15] | A (100)
9 | Cc1cc(C(F)(F)C(F)(F)F)ccc1NC(=O)c1cccc([N+](=O)[O-])c1C(=O)NC(C)C[S+](C)[O-] (stereo not drawn) [compound 391] | A (100)
10 | CSCCC(CO)NC(=O)c1c(I)cccc1C(=O)Nc1ccc(C(F)(C(F)(F)F)C(F)(F)F)cc1C (stereo not drawn) [compound 452] | A (100)
11 | Cc1cc(C(F)(C(F)(F)F)C(F)(F)F)ccc1NC(=O)c1cccc(I)c1C(=O)NC(C)CS(=O)(=O)c1nc2ccccc2s1 (stereo not drawn) [compound 345] | A (100)
12 | CSCC(C)NC(=O)c1ccc(Cl)c(Cl)c1C(=O)Nc1ccc(C(F)(C(F)(F)F)C(F)(F)F)cc1C (stereo not drawn) [compound 42] | A (100)
13 | Cc1cc(C(F)(F)F)ccc1NC(=O)c1cccc(Br)c1C(=O)NC(C)CS(C)(=O)=O (stereo not drawn) [compound 277] | A (100)
14 | CCSCCNC(=O)c1c(I)cccc1C(=O)Nc1ccc(OC(F)(F)F)cc1C [compound 71] | A (100)
15 | CC[S+]([O-])CCCCC(C)NC(=O)c1c(I)cccc1C(=O)Nc1ccc(C(F)(F)C(F)(F)F)cc1C (stereo not drawn) [compound 177] | A (100)
16 | CSCC(C)NC(=O)c1c(C(=O)Nc2ccc(OC(F)(F)F)cc2C)cccc1[N+](=O)[O-] (stereo not drawn) [compound 104] | A (100)
17 | Cc1cc(C(F)(F)C(F)(F)F)ccc1NC(=O)c1cccc(Cl)c1C(=O)NC(C)CCC[S+](C)[O-] (stereo not drawn) [compound 152] | A (100)
18 | CSCC(C)NC(=O)c1c(I)cccc1C(=O)Nc1ccc(Cl)cc1C (stereo not drawn) [compound 9] | A (100)
19 | Cc1cc(C(F)(C(F)(F)F)C(F)(F)F)ccc1NC(=O)c1cccc(F)c1C(=O)N(C)CC[S+](C)[O-] (stereo not drawn) [2-9] | A (100)
20 | CCC(CSC)NC(=O)c1c(I)cccc1C(=O)Nc1ccc(C(F)(C(F)(F)F)C(F)(F)F)cc1C (stereo not drawn) [compound 120] | A (100)
21 | CSCCN(C)C(=O)c1c(F)cccc1C(=O)Nc1ccc(C(F)(C(F)(F)F)C(F)(F)F)cc1C [2-7] | A (100)
22 | COc1ccc(C(=O)Nc2ccc(C(F)(C(F)(F)F)C(F)(F)F)cc2C)c(C(=O)NC(C)CSC)c1Cl (stereo not drawn) [compound 222] | A (100)
23 | CSCC(C)NC(=O)c1cccc(S(C)(=O)=O)c1C(=O)Nc1ccc(C(F)(C(F)(F)F)C(F)(F)F)cc1C (stereo not drawn) [Compound No. 192, N^1-(4-Heptafluoroisopropyl-2-methylphenyl)-N^2-(1-methyl-2-methylthioethyl)-6-methylsulfonylphthalamide] | A (100)
24 | CCN(CC)S(=O)(=O)c1ccc(NC(=O)c2cccc(I)c2C(=O)NC(C)(C)CSC)cc1 [compound 478] | A (100)
25 | Cc1cc(C(F)(C(F)(F)F)C(F)(F)F)ccc1NC(=O)c1cccc(I)c1C(=O)NC1(C[S+](C)[O-])CCCC1 (stereo not drawn) [compound 446] | A (100)
26 | C[S+]([O-])CC(C)(C)NC(=O)c1c(C(=O)Nc2ccc(OC(F)(F)F)cc2Cl)cccc1[N+](=O)[O-] (stereo not drawn) [compound 377] | A (100)
27 | CCS(=O)(=O)CCC(C)NC(=O)c1c(Cl)cccc1C(=O)Nc1ccc(C(F)(C(F)(F)F)C(F)(F)F)cc1C (stereo not drawn) [compound 275] | A (100)

Row | Compound | Test Example 1 insecticidal effect (mortality)
28 | CSCC(C)NC(=O)c1c(SC(F)(F)F)cccc1C(=O)Nc1ccc(C(F)(F)C(F)(F)F)cc1C (stereo not drawn) [compound 129] | A (100)
29 | COC(=O)CCS(=O)(=O)CC(C)NC(=O)c1c(I)cccc1C(=O)Nc1ccc(C(F)(C(F)(F)F)C(F)(F)F)cc1C (stereo not drawn) [compound 343] | A (100)
30 | CCSC(C)CNC(=O)c1cccc(I)c1C(=O)Nc1ccc(C(F)(C(F)(F)F)C(F)(F)F)cc1C (stereo not drawn) [compound 209] | A (100)
31 | CSCCCC(C)NC(=O)c1cccc(Cl)c1C(=O)Nc1ccc(C(F)(F)C(F)(F)F)cc1C (stereo not drawn) [compound 151] | A (100)
32 | CSCC(C)NC(=O)c1c(C(=O)Nc2ccc(C(F)(F)C(F)(F)F)cc2C)ccc2c1OCO2 (stereo not drawn) [compound 158] | A (100)
33 | CCN(CSC)C(=O)c1c(Cl)cccc1C(=O)Nc1ccc(OC(F)(F)F)cc1C [2-16] | A (100)
34 | CCSCC(C)NC(=O)c1c(F)cccc1C(=O)Nc1ccc(OC(F)(F)F)cc1C (stereo not drawn) [compound 27] | A (100)
35 | CSCC(C)NC(=O)c1c(C(=O)Nc2ccc(OC(F)(F)F)cc2C)ccc(F)c1Cl (stereo not drawn) [compound 147] | A (100)
36 | Cc1cc(OC(F)(F)F)ccc1NC(=O)c1ccc(Cl)c(Cl)c1C(=O)NC(C)CS(C)(=O)=O (stereo not drawn) [compound 194] | A (100)
37 | CSCC(C)(C)NC(=O)c1ccc(OC(F)(F)F)cc1C(=O)Nc1ccc(C(F)(C(F)(F)F)C(F)(F)F)cc1C [compound 356] | A (100)
38 | CSCC(C)NC(=O)c1c(F)cccc1C(=O)Nc1ccc(OC(F)(F)F)cc1C (stereo not drawn) [compound 12] | A (100)
39 | CCSCC(C)NC(=O)c1ccc(OC(F)(F)F)cc1C(=O)Nc1ccc(C(F)(C(F)(F)F)C(F)(F)F)cc1C (stereo not drawn) [compound 347] | A (100)
40 | CSCC(C)NC(=O)c1c(I)cccc1C(=O)Nc1ccc(C(F)(F)F)cc1C (stereo not drawn) [compound 307] | A (100)
41 | CSCC(CSC)NC(=O)c1c(I)cccc1C(=O)Nc1ccc(C(F)(F)C(F)(F)F)cc1C [compound 36] | A (100)
42 | CSCC(C)(C)NC(=O)c1c(C(=O)Nc2ccc(Br)cc2C)cccc1[N+](=O)[O-] [compound 324] | A (100)
43 | CC(CS(C)(=O)=O)NC(=O)c1c(I)cccc1C(=O)Nc1cc2c(cc1Cl)OC(F)(F)C(F)O2 (stereo not drawn) [compound 103] | A (100)
44 | Cc1cc(C(F)(C(F)(F)F)C(F)(F)F)ccc1NC(=O)c1cccc(I)c1C(=O)NC1(CS(C)(=O)=O)CCCC1 [compound 447] | A (100)
45 | CSCC(C)NC(=O)c1c(I)cccc1C(=O)Nc1cc2c(cc1Cl)OC(F)(F)C(F)O2 (stereo not drawn) [compound 47] | A (100)
46 | CSCC(C)(C)NC(=O)c1c(I)cccc1C(=O)Nc1ccc(C(=O)c2ccc(Cl)cc2)cc1C [compound 469] | A (100)
47 | Cc1cc(C(F)(C(F)(F)F)C(F)(F)F)ccc1NC(=O)c1cccc(Cl)c1C(=O)NC(C)(C)C[S+](C)[O-] (stereo not drawn) [compound 172] | A (100)
48 | Cc1cc(C(F)(F)C(F)(F)F)ccc1NC(=O)c1c(Cl)cccc1C(=O)NC(C)CS(C)(=O)=O (stereo not drawn) [compound 116] | A (100)
49 | CSCC(C)NC(=O)c1c(F)cccc1C(=O)Nc1ccc(OC(F)F)cc1C (stereo not drawn) [compound 13] | A (100)
50 | CSCC(C)NC(=O)c1c(I)cccc1C(=O)Nc1ccc(OC(F)F)cc1C (stereo not drawn) [compound 4] | A (100)
51 | CSCC(C)NC(=O)c1ccc(I)cc1C(=O)Nc1ccc(OC(F)(F)F)cc1C (stereo not drawn) [compound 110] | A (100)
52 | CC(C)(CS(C)(=O)=O)NC(=O)c1c(C(=O)Nc2ccc(OC(F)(F)F)cc2Cl)cccc1[N+](=O)[O-] [compound 378] | A (100)
53 | C[S+]([O-])CC(C)(C)NC(=O)c1c(F)cccc1C(=O)Nc1ccc(OC(F)(F)F)cc1Cl (stereo not drawn) [compound 386] | A (100)
54 | Cc1cc(OC(F)(F)F)ccc1NC(=O)c1cccc(I)c1C(=O)NCCSC(C)C [compound 58] | A (100)
